Data taken from the supplement of paper PMC10307832.

Tests used:
Experiment in all cases: relative viability (nuclei count vs DMSO), 5 days (fraction); higher = more cells survive
KN-93 + Decitabine = compound: CN(C/C=C/C1=CC=C(C=C1)Cl)CC2=CC=CC=C2N(CCO)S(=O)(=O)C3=CC=C(C=C3)OC [KN-93] + Nc1ncn([C@H]2C[C@H](O)[C@@H](CO)O2)c(=O)n1 [Decitabine] (partner 2 µM)
In short: (§1)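 Lung cancer cell lines in 1536-well plates were dosed by pin tool the day after seeding, either with one drug alone or with a fixed anchor-drug dose plus five library-drug doses (not always all listed) in √10 steps. After 5 days, cells were fixed and their nuclei stained in one step (final 0.05% Triton X-100, 1% formaldehyde, 1 ug/ml Hoechst), then counted on 4× images. Relative viability is the nuclei count in treated wells divided by that in vehicle wells. Values are medians of duplicate plates.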

KN-93 + Palbociclib = compound: CN(C/C=C/C1=CC=C(C=C1)Cl)CC2=CC=CC=C2N(CCO)S(=O)(=O)C3=CC=C(C=C3)OC [KN-93] + CC(=O)c1c(C)c2cnc(Nc3ccc(N4CCNCC4)cn3)nc2n(C2CCCC2)c1=O [Palbociclib] (partner 0.5 µM)
In short: as §1

KN-93 + Pemetrexed = compound: CN(C/C=C/C1=CC=C(C=C1)Cl)CC2=CC=CC=C2N(CCO)S(=O)(=O)C3=CC=C(C=C3)OC [KN-93] + Nc1nc2[nH]cc(CCc3ccc(C(=O)N[C@@H](CCC(=O)O)C(=O)O)cc3)c2c(=O)[nH]1 [Pemetrexed] (partner 0.2 µM)
In short: as §1

KN-93 + Bortezomib = compound: CN(C/C=C/C1=CC=C(C=C1)Cl)CC2=CC=CC=C2N(CCO)S(=O)(=O)C3=CC=C(C=C3)OC [KN-93] + CC(C)C[C@H](NC(=O)[C@H](Cc1ccccc1)NC(=O)c1cnccn1)B(O)O [Bortezomib] (partner 0.002 µM)
In short: as §1

KN-93 + Foretinib = compound: CN(C/C=C/C1=CC=C(C=C1)Cl)CC2=CC=CC=C2N(CCO)S(=O)(=O)C3=CC=C(C=C3)OC [KN-93] + COc1cc2c(Oc3ccc(NC(=O)C4(C(=O)Nc5ccc(F)cc5)CC4)cc3F)ccnc2cc1OCCCN1CCOCC1 [Foretinib] (partner 0.25 µM)
In short: as §1

Cell Line | relative viability (KN-93 + Decitabine; first compound 0.08 µM) | relative viability (KN-93 + Decitabine; first compound 0.253 µM) | relative viability (KN-93 + Decitabine; first compound 2.53 µM) | relative viability (KN-93 + Decitabine; first compound 8 µM) | relative viability (KN-93 + Palbociclib; first compound 0.08 µM) | relative viability (KN-93 + Palbociclib; first compound 0.253 µM) | relative viability (KN-93 + Palbociclib; first compound 2.53 µM) | relative viability (KN-93 + Palbociclib; first compound 8 µM) | relative viability (KN-93 + Pemetrexed; first compound 0.08 µM) | relative viability (KN-93 + Pemetrexed; first compound 0.253 µM) | relative viability (KN-93 + Pemetrexed; first compound 2.53 µM) | relative viability (KN-93 + Pemetrexed; first compound 8 µM) | relative viability (KN-93 + Bortezomib; first compound 0.08 µM) | relative viability (KN-93 + Bortezomib; first compound 0.253 µM) | relative viability (KN-93 + Bortezomib; first compound 2.53 µM) | relative viability (KN-93 + Bortezomib; first compound 8 µM) | relative viability (KN-93 + Foretinib; first compound 0.08 µM) | relative viability (KN-93 + Foretinib; first compound 0.253 µM) | relative viability (KN-93 + Foretinib; first compound 2.53 µM) | relative viability (KN-93 + Foretinib; first compound 8 µM)
NCI-H2405 | 0.741 | 0.736 | 0.77 | 0.593 | 0.561 | 0.594 | 0.547 | 0.471 | 1.06 | 1.24 | 1.02 | 0.775 | 1.01 | 0.978 | 1.09 | 0.728 | 1.05 | 0.995 | 1.01 | 0.75
NCI-H3122 | 0.364 | 0.398 | 0.359 | 0.367 | 0.127 | 0.181 | 0.229 | 0.184 | 0.199 | 0.194 | 0.19 | 0.341 | 1.06 | 1.07 | 1.13 | 1.03 | 1.05 | 1.13 | 1.11 | 0.912
PC-3 [JPC-3] | 0.786 | 0.781 | 0.919 | 0.739 | 0.49 | 0.476 | 0.591 | 0.569 | 1.15 | 1.37 | 0.898 | 0.858 | 0.724 | 0.97 | 0.982 | 0.579 | 0.98 | 1.14 | 1 | 0.784
PC-14 | 0.205 | 0.2 | 0.244 | 0.194 | 0.483 | 0.607 | 0.751 | 0.35 | 0.154 | 0.126 | 0.139 | 0.131 | 0.686 | 0.899 | 0.933 | 0.734 | 0.797 | 0.988 | 1.12 | 1.01
RERF-LC-KJ | 0.627 | 0.753 | 0.722 | 0.346 | 1.03 | 1 | 1.16 | 0.8 | 0.504 | 0.485 | 0.46 | 0.461 | 1.07 | 1.2 | 1.09 | 0.928 | 0.791 | 0.778 | 1.05 | 0.833
SK-LU-1 | 0.627 | 0.702 | 0.633 | 0.364 | 0.439 | 0.451 | 0.41 | 0.314 | 0.967 | 1.19 | 1.16 | 0.688 | 1.58 | 1.02 | 1.59 | 0.591 | 0.768 | 1.05 | 0.938 | 0.48
SW 1573 | 0.494 | 0.615 | 0.466 | 0.212 | 0.395 | 0.47 | 0.429 | 0.15 | 1.07 | 0.916 | 0.981 | 0.307 | 1.04 | 1.23 | 0.973 | 0.763 | 0.863 | 0.91 | 0.933 | 1
UMC-11 | 0.594 | 0.612 | 0.634 | 0.461 | 0.35 | 0.306 | 0.35 | 0.322 | 0.697 | 1.01 | 1.05 | 0.467 |  | 0.919 | 0.799 | 0.197 | 0.97 | 1.28 | 1.23 | 0.452
